In PubChem BioAssay AID248 (DTP/NCI, 2004):
“And” between values parts separate entries of the source, which are not always exact repeats. Identical values can stand only once. Toxic doses and inconclusive results are not listed. Cut-off read from the data, not from the text of the source: active = T/C of 150% or more; inactive = T/C below 125%.

Tested on: L1210 leukemia ip in BDF1 mice, survival T/C
Test: NCI In Vivo Anticancer Drug Screen. Data for tumor model L1210 Leukemia (intraperitoneal) in B6D2F1 (BDF1) mice
Conditions: endpoint: mean survival time, higher = longer survival
In short: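 Mice bearing the transplanted tumor received compound or vehicle. Survival of the treated group was divided by that of the vehicle-treated control group to give the ratio.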

[1] = dose: 100.0 mg/kg/injection, schedule: Q04DX002 (ip), vehicle: Klucel (hydroxypropylcellulose) (HPC)
[2] = dose: 200.0 mg/kg/injection, schedule: Q04DX002 (ip), vehicle: Klucel (hydroxypropylcellulose) (HPC)
[3] = dose: 400.0 mg/kg/injection, schedule: Q04DX002 (ip), vehicle: Klucel (hydroxypropylcellulose) (HPC)
[4] = dose: 100.0 mg/kg/injection, schedule: Q01DX001 (ip), vehicle: Klucel (hydroxypropylcellulose) (HPC)
[5] = dose: 200.0 mg/kg/injection, schedule: Q01DX001 (ip), vehicle: Klucel (hydroxypropylcellulose) (HPC)
[6] = dose: 100.0 mg/kg/injection, schedule: Q04DX003 (ip), vehicle: saline
[7] = dose: 200.0 mg/kg/injection, schedule: Q04DX003 (ip), vehicle: saline
[8] = dose: 400.0 mg/kg/injection, schedule: Q04DX003 (ip), vehicle: saline
[9] = dose: 100.0 mg/kg/injection, schedule: Q01DX001 (ip), vehicle: saline with Tween-80
[10] = dose: 200.0 mg/kg/injection, schedule: Q01DX001 (ip), vehicle: saline with Tween-80
[11] = dose: 100.0 mg/kg/injection, schedule: Q01DX001 (ip), vehicle: saline
[12] = dose: 200.0 mg/kg/injection, schedule: Q01DX001 (ip), vehicle: saline
[13] = dose: 400.0 mg/kg/injection, schedule: Q01DX001 (ip), vehicle: saline
[14] = dose: 100.0 mg/kg/injection, schedule: Q01DX001 (ip), vehicle: other
[15] = dose: 200.0 mg/kg/injection, schedule: Q01DX001 (ip), vehicle: other
[16] = dose: 400.0 mg/kg/injection, schedule: Q01DX001 (ip), vehicle: other
[17] = dose: 30.0 mg/kg/injection, schedule: Q01DX Z (ip), vehicle: saline

Measured: T/C

CN(C)C(=O)Oc1c(Cl)c(Cl)c(OC(=O)N(C)C)c(Cl)c1Cl
inactive: [1] 94 % of control | [2] 105 % of control | [3] 90 % of control

O=C(OC1OC(COCc2ccccc2)C(OCc2ccccc2)C1OCc1ccccc1)c1ccccc1 (stereo unspecified)
inactive: [4] 92 % of control and 98 % of control | [5] 100 % of control and 98 % of control | dose: 400.0 mg/kg/injection, schedule: Q01DX001 (ip), vehicle: Klucel (hydroxypropylcellulose) (HPC) 94 % of control and 113 % of control

CCc1c[n+]([O-])c(C)cc1[N+](=O)[O-]
inactive: dose: 100.0 mg/kg/injection, schedule: Q01DX009 (ip), vehicle: saline 108 % of control | [6] 101 % of control | dose: 200.0 mg/kg/injection, schedule: Q01DX009 (ip), vehicle: saline 101 % of control | [7] 122 % of control | [8] 95 % of control

CSCc1cnc(N)nc1-c1ccccc1
inactive: dose: 100.0 mg/kg/injection, schedule: Q04DX003 (ip), vehicle: saline with Tween-80 105 % of control | dose: 200.0 mg/kg/injection, schedule: Q04DX003 (ip), vehicle: saline with Tween-80 97 % of control | dose: 400.0 mg/kg/injection, schedule: Q04DX003 (ip), vehicle: saline with Tween-80 105 % of control

CC(C)(C)C(=O)/C=C/c1ccc(Cl)cc1
inactive: dose: 100.0 mg/kg/injection, schedule: Q04DX002 (ip), vehicle: gum acacia 93 % of control | dose: 200.0 mg/kg/injection, schedule: Q04DX002 (ip), vehicle: gum acacia 97 % of control | dose: 400.0 mg/kg/injection, schedule: Q04DX002 (ip), vehicle: gum acacia 104 % of control

CC(C)(C)NC/C(=C\c1ccccc1)S(=O)(=O)c1ccccc1[N+](=O)[O-]
inactive: dose: 50.0 mg/kg/injection, schedule: Q01DX001 (ip), vehicle: saline with Tween-80 91 % of control | [9] 93 % of control | [10] 95 % of control

O=C(Nc1ccccc1-c1ccccc1)c1ccc(Cl)cc1Cl
inactive: [1] 104 % of control | [2] 93 % of control | [3] 101 % of control

Nc1cccn2cnnc12
inactive: [11] 103 % of control | [12] 101 % of control | [13] 97 % of control

c1ccc(-c2c(-c3ccc4c(c3)OCO4)c(-c3ccc4c(c3)OCO4)c(-c3ccccc3)c3ccccc23)cc1
inactive: [9] 92 % of control | [10] 100 % of control

CCCC(C)NCCOC(=O)c1ccc(N)cc1 (stereo unspecified)
inactive: dose: 75.0 mg/kg/injection, schedule: Q01DX001 (ip), vehicle: saline 95 % of control

COc1ccc(OC)c(NC(=O)c2cccc([N+](=O)[O-])c2)c1
inactive: dose: 100.0 mg/kg/injection, schedule: Q01DX001 (ip), vehicle: carboxymethylcellulose (CMC) 94 % of control | dose: 200.0 mg/kg/injection, schedule: Q01DX001 (ip), vehicle: carboxymethylcellulose (CMC) 100 % of control | dose: 400.0 mg/kg/injection, schedule: Q01DX001 (ip), vehicle: carboxymethylcellulose (CMC) 94 % of control

CC(=O)OC(C(=O)O)C(OC(C)=O)C(=O)NCCO (stereo unspecified)
inactive: dose: 100.0 mg/kg/injection, schedule: Q01DX001 (ip), vehicle: water 94 % of control | dose: 100.0 mg/kg/injection, schedule: Q04DX003 (ip), vehicle: water 87 % of control | dose: 200.0 mg/kg/injection, schedule: Q01DX001 (ip), vehicle: water 96 % of control | dose: 200.0 mg/kg/injection, schedule: Q04DX003 (ip), vehicle: water 95 % of control | dose: 400.0 mg/kg/injection, schedule: Q01DX001 (ip), vehicle: water 94 % of control | dose: 400.0 mg/kg/injection, schedule: Q04DX003 (ip), vehicle: water 97 % of control

O=C(CCc1ccc(O)cc1)N/N=C/c1ccc2c(c1)OCO2
inactive: dose: 200.0 mg/kg/injection, schedule: Q01DX009 (ip), vehicle: saline with Tween-80 97 % of control | dose: 400.0 mg/kg/injection, schedule: Q01DX009 (ip), vehicle: saline with Tween-80 87 % of control

COc1ccccc1-n1c(O)c(N=Nc2ccc(Br)cc2)c(=O)n(-c2ccc(Cl)cc2)c1=S
inactive: [4] 101 % of control | [5] 107 % of control

Cc1ccc(S(=O)(=O)CCN2CCc3ccccc3C2)cc1
inactive: [11] 103 % of control | [12] 100 % of control | [13] 97 % of control

CCc1nnc2cc(C)ccn12
inactive: [14] 98 % of control | dose: 100.0 mg/kg/injection, schedule: Q04DX003 (ip), vehicle: other 98 % of control | [15] 107 % of control | dose: 200.0 mg/kg/injection, schedule: Q04DX003 (ip), vehicle: other 98 % of control | [16] 107 % of control

O=C1NC(=O)c2c(Cl)c(Cl)c(Cl)c(Cl)c21
inactive: dose: 25.0 mg/kg/injection, schedule: Q04DX003 (ip), vehicle: saline 95 % of control | dose: 50.0 mg/kg/injection, schedule: Q04DX003 (ip), vehicle: saline 106 % of control | [6] 92 % of control and 93 % of control | [7] 98 % of control | [8] 111 % of control

CCCCCCCCCCC1Cc2ccccc2C1
inactive: dose: 50.0 mg/kg/injection, schedule: Q01DX001 (ip), vehicle: saline 95 % of control | [11] 98 % of control | [12] 104 % of control | [13] 93 % of control

CC1CCCCN1C(=O)c1ccccc1C(=O)O (stereo unspecified)
inactive: [1] 104 % of control | [2] 111 % of control

Cc1ccc(S(=O)(=O)N(c2ccccc2)C(C)C(=O)c2ccccc2)cc1 (stereo unspecified)
inactive: [14] 104 % of control | [15] 92 % of control | [16] 95 % of control

CN(C)CC1CCCCC1OC(=O)c1ccccc1 (stereo unspecified)
inactive: dose: 50.0 mg/kg/injection, schedule: Q01DX009 (ip), vehicle: saline with Tween-80 91 % of control | dose: 100.0 mg/kg/injection, schedule: Q01DX009 (ip), vehicle: saline with Tween-80 94 % of control

CC(N)C(=O)NCCCl (stereo unspecified)
inactive: dose: 10.0 mg/kg/injection, schedule: Q01DX Z (ip), vehicle: saline 91 % of control | [17] 104 % of control | dose: 100.0 mg/kg/injection, schedule: Q01DX Z (ip), vehicle: saline 91 % of control | dose: 300.0 mg/kg/injection, schedule: Q01DX Z (ip), vehicle: saline 93 % of control

O=C1C(Br)=CC(Br)=C/C1=N/Br
inactive: dose: 50.0 mg/kg/injection, schedule: Q04DX003 (ip), vehicle: Klucel (hydroxypropylcellulose) (HPC) 108 % of control | dose: 100.0 mg/kg/injection, schedule: Q04DX003 (ip), vehicle: Klucel (hydroxypropylcellulose) (HPC) 97 % of control | dose: 200.0 mg/kg/injection, schedule: Q04DX003 (ip), vehicle: Klucel (hydroxypropylcellulose) (HPC) 93 % of control

[NH-]CC(=O)O.[NH-]CC(=O)O.[Pt+2]
inactive: dose: 14.0 mg/kg/injection, schedule: Q01DX009 (ip), vehicle: other 89 % of control | dose: 27.9 mg/kg/injection, schedule: Q01DX001 (ip), vehicle: other 93 % of control | dose: 28.0 mg/kg/injection, schedule: Q01DX009 (ip), vehicle: other 100 % of control | dose: 55.8 mg/kg/injection, schedule: Q01DX001 (ip), vehicle: other 89 % of control | dose: 56.0 mg/kg/injection, schedule: Q01DX009 (ip), vehicle: other 96 % of control | dose: 112.0 mg/kg/injection, schedule: Q01DX001 (ip), vehicle: other 97 % of control | dose: 112.0 mg/kg/injection, schedule: Q01DX009 (ip), vehicle: other 113 % of control | dose: 223.0 mg/kg/injection, schedule: Q01DX001 (ip), vehicle: other 109 % of control

Clc1ccc(C2=Nc3cccc4cccc(c34)N2)cc1Cl
inactive: dose: 15.0 mg/kg/injection, schedule: Q01DX Z (ip), vehicle: saline 97 % of control | [17] 105 % of control | dose: 60.0 mg/kg/injection, schedule: Q01DX Z (ip), vehicle: saline 100 % of control | dose: 60.0 mg/kg/injection, schedule: Q01DX Z (oral), vehicle: saline 91 % of control | dose: 120.0 mg/kg/injection, schedule: Q01DX Z (oral), vehicle: saline 96 % of control | dose: 240.0 mg/kg/injection, schedule: Q01DX Z (oral), vehicle: saline 94 % of control | dose: 480.0 mg/kg/injection, schedule: Q01DX Z (oral), vehicle: saline 98 % of control

O=C1OC(/C=C\c2ccccc2)=NC/1=C\c1cc(Cl)cc(Cl)c1O
inactive: [1] 108 % of control | [2] 112 % of control | [3] 108 % of control
